Columns and labels:
Format in all cases: in vivo
soybean (Glycine max) = assay: Test C; set-up: key: 0 was no effect; 100 was complete control; settings: PREEMERGENCE
[1] = test system: fall panicum (Panicum dichotomiflorum); assay: Test C; set-up: key: 0 was no effect; 100 was complete control; settings: PREEMERGENCE
[2] = test system: eastern black nightshade (Solanum ptycanthum); assay: Test C; settings: PREEMERGENCE
[3] = test system: barnyardgrass (Echinochloa crus-galli); assay: Test C; set-up: key: 0 was no effect; 100 was complete control; settings: PREEMERGENCE
[4] = test system: large crabgrass (Digitaria sanguinalis); assay: Test C; set-up: key: 0 was no effect; 100 was complete control; settings: PREEMERGENCE
[5] = test system: velvetleaf (Abutilon theophrasti); assay: Test C; set-up: key: 0 was no effect; 100 was complete control; settings: PREEMERGENCE
[6] = test system: sandbur (Cenchrus echinatus); assay: Test E pre-/postemergence/post directed; set-up: key: 0 is no injury; 100 is complete control; settings: POSTEMERGENCE, Rate 32 g/ha
Method in brief: (§1)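 Injury was scored visually on a 0 to 100 scale (100 = complete control) 13 to 21 days after treatment of greenhouse-grown plants. Test chemicals, in a surfactant-containing non-phytotoxic solvent, were sprayed onto soil within a day of planting, onto plants at the two to four leaf stage, or directed at the base of the plants.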

[7] = test system: purple nutsedge (Cyperus rotundus); assay: Test E pre-/postemergence/post directed; set-up: key: 0 is no injury; 100 is complete control
Method in brief: as §1

[8] = test system: wild poinsettia (Euphorbia heterophylla); assay: Test C; set-up: key: 0 was no effect; 100 was complete control; settings: PREEMERGENCE
[9] = test system: ladysthumb smartweed (Polygonum persicaria); assay: Test C; settings: PREEMERGENCE, Rate 70 g/ha
[10] = test system: hairy beggarticks (Bidens pilosa); assay: Test C; set-up: key: 0 was no effect; 100 was complete control; settings: PREEMERGENCE
[11] = test system: ivyleaf morningglory (Ipomoea hederacea); assay: Test C; set-up: key: 0 was no effect; 100 was complete control; settings: PREEMERGENCE
[12] = test system: common ragweed (Ambrosia elatior); assay: Test C; set-up: key: 0 was no effect; 100 was complete control; settings: PREEMERGENCE
[13] = test system: arrowleaf sida (Sida rhombifolia); assay: Test C; set-up: key: 0 was no effect; 100 was complete control; settings: PREEMERGENCE

## Cc1cnc(-n2ccc(C(F)(F)F)n2)nc1Cc1cccc(C(F)(F)F)c1 [Example 2, 5-methyl-4-[[3-(trifluoromethyl)phenyl]methyl]-2-[3-(trifluoromethyl)-1H-pyrazol-1-yl]pyrimidine]
Soybean (Glycine max); Rate 35 g/ha
  Plant response rating, Soybean: 0
Soybean (Glycine max); Rate 70 g/ha
  Plant response rating, Soybean: 0
Soybean (Glycine max); Rate 140 g/ha
  Plant response rating, Soybean: 40
[1]; Rate 35 g/ha
  Plant response rating, Fall panicum: 0
[1]; Rate 70 g/ha
  Plant response rating, Fall panicum: 5
[1]; Rate 140 g/ha
  Plant response rating, Fall panicum: 100
[2]; Rate 35 g/ha
  Plant response rating, E. blacknightsh: 5
[2]; Rate 70 g/ha
  Plant response rating, E. blacknightsh: 5
[2]; Rate 140 g/ha
  Plant response rating, E. blacknightsh: 90
[3]; Rate 35 g/ha
  Plant response rating, Barnyardgrass: 0
[3]; Rate 70 g/ha
  Plant response rating, Barnyardgrass: 5
[3]; Rate 140 g/ha
  Plant response rating, Barnyardgrass: 30
[4]; Rate 35 g/ha
  Plant response rating, Large crabgrass: 0
[4]; Rate 70 g/ha
  Plant response rating, Large crabgrass: 5
[4]; Rate 140 g/ha
  Plant response rating, Large crabgrass: 100
[5]; Rate 35 g/ha
  Plant response rating, Velvetleaf: 0
[5]; Rate 70 g/ha
  Plant response rating, Velvetleaf: 5
[5]; Rate 140 g/ha
  Plant response rating, Velvetleaf: 50
[6]
  Plant response rating, Sandbur: 0
[7]; POSTEMERGENCE, Rate 32 g/ha
  Plant response rating, Purple nutsedge: 0
[7]; POSTEMERGENCE, Rate 64 g/ha
  Plant response rating, Purple nutsedge: 0
[7]; POSTEMERGENCE, Rate 125 g/ha
  Plant response rating, Purple nutsedge: 0
[7]; POSTEMERGENCE, Rate 250 g/ha
  Plant response rating, Purple nutsedge: 0
[7]; POSTEMERGENCE, Rate 500 g/ha
  Plant response rating, Purple nutsedge: 0
[7]; PREEMERGENCE, Rate 32 g/ha
  Plant response rating, Purple nutsedge: 0
[7]; PREEMERGENCE, Rate 64 g/ha
  Plant response rating, Purple nutsedge: 0
[7]; PREEMERGENCE, Rate 125 g/ha
  Plant response rating, Purple nutsedge: 0
[7]; PREEMERGENCE, Rate 250 g/ha
  Plant response rating, Purple nutsedge: 0
[7]; PREEMERGENCE, Rate 500 g/ha
  Plant response rating, Purple nutsedge: 0
[8]; Rate 35 g/ha
  Plant response rating, Wild poinsettia: 0
[8]; Rate 70 g/ha
  Plant response rating, Wild poinsettia: 5
[8]; Rate 140 g/ha
  Plant response rating, Wild poinsettia: 45
[9]
  Plant response rating, Ladysthumb: 30
[10]; Rate 35 g/ha
  Plant response rating, H. beggarticks: 40
[10]; Rate 70 g/ha
  Plant response rating, H. beggarticks: 40
[10]; Rate 140 g/ha
  Plant response rating, H. beggarticks: 100
[11]; Rate 35 g/ha
  Plant response rating, I. morningglory: 0
[11]; Rate 70 g/ha
  Plant response rating, I. morningglory: 5
[11]; Rate 140 g/ha
  Plant response rating, I. morningglory: 5
[12]; Rate 35 g/ha
  Plant response rating, Common ragweed: 0
[12]; Rate 70 g/ha
  Plant response rating, Common ragweed: 0
[12]; Rate 140 g/ha
  Plant response rating, Common ragweed: 50
[13]; Rate 35 g/ha
  Plant response rating, Arrowleaf sida: 10
[13]; Rate 70 g/ha
  Plant response rating, Arrowleaf sida: 20
[13]; Rate 140 g/ha
  Plant response rating, Arrowleaf sida: 100

— patent publication US6525001B1, “Substituted pyrimidine and pyridine herbicides” (Mid-American Commercialization Corporation, priority 1997, dated 2003)
